Test results: patent US8580753B2, “Modulation of telomere length in telomerase positive cells and cancer therapy” (ALT Solutions Inc., priority 2005, dated 2013)
Entries after “also recorded” stand apart in the source; their conditions may differ. Like-named read-outs stand apart in the source and are kept apart here.

How the values were obtained:
HeLa cell line [1] = test: Telomere length by flow cytometry with telomere-specific PNA probe; assay type: cell-based, human
Method: (§1) Telomere length in GCV and ACV treated and untreated cell lines was measured by flow cytometry with a telomere-specific peptide nucleic acid (PNA) probe^23,24. To determine cell cycle distribution, cells were stained with propidium iodide (PI)^23.
(§2) The origin of the cell lines are uterine cervix (HeLa) and epithelial ovarian (NuTu-19). Cells were cultured in D-MEM media supplemented with 10% fetal calf serum at 37° C. in a humidified atmosphere of 5% CO2. For treatment of the cells with GCV, the media was supplemented with 1.5 µM of GCV (Cymevene, Hoffman-La Roche). For treatment of the cells with ACV, the media was supplemented with 3 µM of Aciclovir (Aciclovir, TEVA Pharm. Ind. Ltd, Israel).
(§3) For telomere length measurement by flow cytometry, cells were stained with telomere specific FITC conjugated (C3TA2)3 PNA (Applied Biosystems) probe and contrastained with 0.06 µg/ml PI as described by Rufer, N., Dragowska, W., Thornbury G., Roosnek, B., Lansdorp P. M. Telomere length dynamics in human lymphocyte subpopulations […]. Nat. Biotechnol. 16, 743-747 (1998)).

NuTu-19 cell line [2] = test: as above; assay type: cell-based; details: for telomere length: NuTu-19, GCV 1.5 μM or ACV 3.0 μM, 14 days
Method: as §1, §2, §3

HeLa cell line [3] = test: Cell cycle distribution and apoptosis by propidium iodide staining and flow cytometry; assay type: cell-based, human
Method: as §1
(§4) It is important to note that changes were rapid and could be detected after only 14 days of ACV treatment. In contrast, the nucleoside analog, AZT had no effect on telomere length or cell cycle distribution in telomerase positive cells, HeLa and NuTu-19, even at elevated concentrations e.g., 100 µM (data not shown).
as §2, §3

NuTu-19 cell line [4] = test: as above; assay type: cell-based
Method: as §1, §4, §2, §3

[5] = system: telomerase positive cell lines; details: prolonged exposure, cited from earlier work
[6] = single oral dose of 300 mg; cited from earlier work
mammalian cells = details: short-time exposure, 5 μM, in vitro and in vivo; cited from earlier work
HeLa cells = test: Nude mice injected s.c. with HeLa cells, Valcyte in drinking water; assay type: in vivo
Method: Human cancer HeLa cell culture was purchased from ATCC. In all, 12 CD1/-nu and 12 NMRiJI-nu nude mice were purchased from Charles River Laboratories, Charles River Deutschland GmbH. These nude mice were injected s.c. with […] HeLa cells. Experimental group received valganciclovir in drinking water from day 0. Specifically, mice in the experimental groups (6 mice per strain) were exposed to Valcyte (val-ganciclovir) in drinking water (1 mg/ml) from day 0. […] In about 14 days, all mice were bearing the tumors.

[7] = system: telomerase positive cell lines; test: DNA content by PI staining at later stages of treatment; assay type: cell-based; details: compared to untreated cells, cell line not specified
Method: A rational explanation of this fact is a short telomere induced chromosome end-to-end joining^25.
as §2, §3

NuTu-19 cells = test: Exemplary in vivo assay: pre-established NuTu-19 tumors in Fischer rats; details: for tumor growth: in drinking water ad libitum, administered 21-28 days to tumor bearing rats
Method: In another embodiment, the reagents and methods of the invention can be used to promote tumor regression in vivo in immunocompetent animals carrying pre-established tumors; i.e., the reagents of the invention can be used to treat animals with pre-existing tumors. In this case, the cancerous 10^6 NuTu-19 cells are injected subcutaneously in the flank of the Fischer rats to establish tumors.

[8] = even at elevated concentrations e.g. 100 μM (data not shown)
[9] = NuTu-19, even at elevated concentrations e.g. 100 μM (data not shown)
[10] = GCV 1.5 μM or ACV 3.0 μM, 14 days
[11] = NuTu-19, GCV 1.5 μM or ACV 3.0 μM, 14 days

Cc1cn([C@H]2C[C@H](N=[N+]=[N-])[C@@H](CO)O2)c(=O)[nH]c1=O [AZT, 3′-azido-2′,3′-dideoxythymidine]
effect on telomere length (HeLa cell line [1]; [8]): no effect
effect on telomere length (NuTu-19 cell line [2]; [9]): no effect
effect on cell cycle distribution (HeLa cell line [3]; [8]): no effect
effect on cell cycle distribution (NuTu-19 cell line [4]; [9]): no effect
telomere shortening ([5]; 100 μM (Murakami et al. 1999)): failed to induce any significant telomere shortening
telomere shortening ([5]; 800 μM (Gomez et al. 1998; Tejera et al. 2001)): failed to induce any significant telomere shortening
peak serum concentration [6]: less than 10 μM
time of absorption [6]: ≤ 0.5 h
toxic effects on mammalian cells (mammalian cells): induces undesirable toxic effects

CC(C)[C@H](N)C(=O)OCC(CO)OCn1cnc2c(=O)nc(N)[nH]c21 (stereo partly drawn) [Valcyte, valganciclovir]
tumor development (HeLa cells; 1 mg/ml in drinking water from day 0, all mice bearing tumors in about 14 days): All mice in control and treated groups had developed tumors
tumor regression (HeLa cells; one mouse from the treated group, by about the 30th day, monotherapy, 1 mg/ml in drinking water): this tumor was eliminated
tumor growth (HeLa cells; other mice in the treated groups, 1 mg/ml in drinking water): slowing of tumor growth (stabilization)

Nc1nc2c(ncn2COCCO)c(=O)[nH]1 [ACV, 9-[2(hydromethoxy)-methyl] guanine]
telomere length (HeLa cell line [1]; [10]): telomere shortening
telomere length (NuTu-19 cell line [2]): decrease in telomere length; also recorded: telomere shortening
apoptosis (HeLa cell line [3]; [10]): massive apoptosis
cell cycle distribution (HeLa cell line [3]; [10]): G2 arrest
apoptosis (NuTu-19 cell line [4]; [11]): massive apoptosis
cell cycle distribution (NuTu-19 cell line [4]; [11]): changes in cell cycle; also recorded: G2 arrest
DNA content (PI staining) [7]: higher DNA content
tumor growth (NuTu-19 cells): retarded tumor growth

Nc1nc(O)c2ncn(COC(CO)CO)c2n1 [GCV, ganciclovir]
telomere length (HeLa cell line [1]; 1.5 μM GCV, 10 days, vs untreated cells (FIG. 1)): decrease in telomere length
telomere length (HeLa cell line [1]; [10]): telomere shortening
telomere length (NuTu-19 cell line [2]): telomere shortening
apoptosis (HeLa cell line [3]; 1.5 μM GCV, 10 days (FIG. 1)): massive apoptosis
cell cycle distribution (HeLa cell line [3]; 1.5 μM GCV, 10 days (FIG. 1, FIG. 3)): changes in the cell cycle distribution
apoptosis (HeLa cell line [3]; [10]): massive apoptosis
cell cycle distribution (HeLa cell line [3]; [10]): G2 arrest
cell cycle distribution (NuTu-19 cell line [4]; NuTu-19, 1.5 μM GCV, 10 days (FIG. 3)): changes in the cell cycle distribution
apoptosis (NuTu-19 cell line [4]; [11]): massive apoptosis
cell cycle distribution (NuTu-19 cell line [4]; [11]): G2 arrest
DNA content (PI staining) [7]: higher DNA content
survival (NuTu-19 cells; few weeks after the start of the treatment): 100%
tumor growth (NuTu-19 cells): retarded tumor growth
